# Assay results published in US20230174523A1, “BENZENESULFONAMIDE DERIVATIVES AS TRAP1 MODULATORS AND USES THEREOF” (Amathus Therapeutics, Inc., priority 2020, published 2023).
# Biological target: T1, TRAP1 enzyme (Homo sapiens, UniProt Q12931)
# T1 sequence (Q12931 60-704): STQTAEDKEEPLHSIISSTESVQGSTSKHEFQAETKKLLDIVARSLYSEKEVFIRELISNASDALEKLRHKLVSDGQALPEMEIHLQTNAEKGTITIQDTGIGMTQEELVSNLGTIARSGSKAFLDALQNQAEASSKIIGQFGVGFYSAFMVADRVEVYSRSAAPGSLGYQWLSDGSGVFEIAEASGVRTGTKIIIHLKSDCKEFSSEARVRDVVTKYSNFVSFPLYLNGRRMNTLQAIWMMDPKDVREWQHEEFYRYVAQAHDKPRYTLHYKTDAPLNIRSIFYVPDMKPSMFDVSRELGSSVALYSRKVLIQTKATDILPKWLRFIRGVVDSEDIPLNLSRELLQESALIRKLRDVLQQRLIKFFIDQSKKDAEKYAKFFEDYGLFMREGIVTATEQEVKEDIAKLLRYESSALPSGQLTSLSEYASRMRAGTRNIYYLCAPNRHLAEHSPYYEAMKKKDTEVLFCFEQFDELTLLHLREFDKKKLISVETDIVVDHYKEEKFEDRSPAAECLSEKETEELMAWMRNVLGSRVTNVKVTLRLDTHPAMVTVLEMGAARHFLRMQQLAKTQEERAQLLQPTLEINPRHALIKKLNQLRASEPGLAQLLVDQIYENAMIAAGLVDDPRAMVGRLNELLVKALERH
# Test: ADP Glo assay of TRAP1 ATPase activity
# Assay type: biochemical
# Conditions: for EC50: TRAP1 ATPase activation, 150 nM Trap1, 20 μM ATP, geometric mean, read-out: ADP GLO DRC: GeoMean EC50; for Emax: read-out: ADP GLO DRC: Mean Emax
# In short: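 150 nM TRAP1 preincubated with compound (0.79–100 μM) 30 min at 37° C in Pipes pH 7.5 buffer (0.05 mM MgCl2, 40 mM KCl), then 20 μM ATP added for 60 min at 37° C. ADP quantified by ADP-Glo luminescence against ATP/ADP standard curve. Emax and EC50 from sigmoidal fit.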
EC50,Emax,Structure (SMILES)
< 10 µM,160 to 199%,COc1ccc(NC(=O)c2ccc(-c3ccccn3)s2)cc1S(=O)(=O)Nc1c(C)cccc1C [Compound 1152]
20 to 100 µM,123 to 159%,COc1ccc(NC(=O)c2c(C(F)(F)F)ccnc2C)cc1S(=O)(=O)Nc1c(C)cccc1C [Compound 1153]
20 to 100 µM,200 to 300%,COc1ccc(NC(=O)c2cccc(OC3CCOCC3)n2)cc1S(=O)(=O)Nc1c(C)cccc1C [Compound 1154]
< 10 µM,123 to 159%,COc1ccc(NC(=O)c2sc(-c3cccs3)nc2C)cc1S(=O)(=O)Nc1c(C)cccc1C [Compound 1156]
< 10 µM,123 to 159%,COc1ccc(NC(=O)c2cccnc2SCc2ccccc2)cc1S(=O)(=O)Nc1c(C)cccc1C [Compound 1157]
20 to 100 µM,160 to 199%,COc1ccc(NC(=O)c2cnoc2C2CC2)cc1S(=O)(=O)Nc1c(C)cccc1C [Compound 1160]
< 10 µM,123 to 159%,COc1ccc(NC(=O)c2ccc(-c3ccccc3C(F)(F)F)o2)cc1S(=O)(=O)Nc1c(C)cccc1C [Compound 1162]
< 10 µM,123 to 159%,COc1ccc(NC(=O)c2cc(C)cc(F)c2F)cc1S(=O)(=O)Nc1c(C)cccc1C [Compound 1164]
10 to 20 µM,123 to 159%,COc1ccc(NC(=O)c2ncccc2C)cc1S(=O)(=O)Nc1c(C)cccc1C [Compound 1167]
< 10 µM,160 to 199%,COc1ccc(NC(=O)c2nc(C(C)C)cs2)cc1S(=O)(=O)Nc1c(C)cccc1C [Compound 1169]
< 10 µM,123 to 159%,COc1ccc(NC(=O)c2cc3ccccc3n2C)cc1S(=O)(=O)Nc1c(C)cccc1C [Compound 1170]
20 to 100 µM,160 to 199%,COc1ccc(NC(=O)c2nccs2)cc1S(=O)(=O)Nc1c(C)cccc1C [Compound 1171]
< 10 µM,160 to 199%,CCCN1CCN(c2ccc(C(=O)Nc3ccc(OC)c(S(=O)(=O)Nc4c(C)cccc4C)c3)cc2)CC1 [Compound 1174]
20 to 100 µM,160 to 199%,COc1ccc(NC(=O)c2cnc(C3CC3)o2)cc1S(=O)(=O)Nc1c(C)cccc1C [Compound 1175]
< 10 µM,160 to 199%,COc1ccccc1-c1nc(C(=O)Nc2ccc(OC)c(S(=O)(=O)Nc3ccc(Br)cc3)c2)c[nH]1 [Compound 1181]
20 to 100 µM,> 300%,C=C(C)c1cc(OC)c(S(=O)(=O)Nc2ccc(C(F)(F)F)cc2)cc1NC(=O)c1ncc(-c2ccccc2)o1 [Compound 1189]
10 to 20 µM,160 to 199%,COc1ccc(NC(=O)c2cccc(-c3cnco3)c2)cc1S(=O)(=O)Nc1c(C)cccc1C [Compound 1218]
20 to 100 µM,160 to 199%,COc1ccc(NC(=O)c2cccc3ncccc23)cc1S(=O)(=O)Nc1c(C)cccc1C [Compound 1219]
20 to 100 µM,123 to 159%,O=C(Nc1ccc(F)c(S(=O)(=O)Nc2ccc(Cl)cc2)c1)c1cccc(-n2cncn2)c1 [Compound 1220]
10 to 20 µM,200 to 300%,COc1ccc(NC(=O)c2cccc(-c3cnccn3)c2)cc1S(=O)(=O)Nc1c(C)cccc1C [Compound 1222]
20 to 100 µM,160 to 199%,COc1ccc(NC(=O)c2cccc3cnccc23)cc1S(=O)(=O)Nc1c(C)cccc1C [Compound 1224]
< 10 µM,200 to 300%,COc1ccc(NC(=O)c2cccc(-c3cccnc3)c2)cc1S(=O)(=O)Nc1c(C)cccc1C [Compound 1225]
20 to 100 µM,123 to 159%,COc1ccc(NC(=O)c2cc(C)nc3onc(C)c23)cc1S(=O)(=O)Nc1c(C)cccc1C [Compound 1226]

EC50,Emax,Structure (SMILES)
10 to 20 µM,200 to 300%,COc1ccc(NC(=O)c2cccc3ncsc23)cc1S(=O)(=O)Nc1c(C)cccc1C [Compound 1227]
20 to 100 µM,123 to 159%,COc1ccc(NC(=O)c2ccc3c(c2)ncn3C)cc1S(=O)(=O)Nc1c(C)cccc1C [Compound 1228]
< 10 µM,160 to 199%,COc1ccc(NC(=O)c2cc(-c3ccccc3)no2)cc1S(=O)(=O)Nc1c(C)cccc1C [Compound 1229]
10 to 20 µM,> 300%,COc1ccc(NC(=O)c2ccc3nc(C)sc3c2)cc1S(=O)(=O)Nc1c(C)cccc1C [Compound 1231]
10 to 20 µM,200 to 300%,COc1ccc(NC(=O)c2cccc(-n3ccnc3)c2)cc1S(=O)(=O)Nc1c(C)cccc1C [Compound 1232]
10 to 20 µM,160 to 199%,COc1ccc(NC(=O)c2ccc3ncsc3c2)cc1S(=O)(=O)Nc1c(C)cccc1C [Compound 1233]
< 10 µM,160 to 199%,COc1ccc(NC(=O)c2ccccc2Oc2ccccc2)cc1S(=O)(=O)Nc1c(C)cccc1C [Compound 1234]
10 to 20 µM,200 to 300%,COc1ccc(NC(=O)c2n[nH]c3c2CCCC3)cc1S(=O)(=O)Nc1c(C)cccc1C [Compound 1235]
20 to 100 µM,123 to 159%,COc1ccc(NC(=O)c2ccc3ncoc3c2)cc1S(=O)(=O)Nc1c(C)cccc1C [Compound 1236]
< 10 µM,160 to 199%,COc1ccc(NC(=O)c2ccc(Cn3cc(Cl)cn3)cc2)cc1S(=O)(=O)Nc1c(C)cccc1C [Compound 1237]
20 to 100 µM,123 to 159%,COc1ccc(NC(=O)c2ccc3ncn(C)c3c2)cc1S(=O)(=O)Nc1c(C)cccc1C [Compound 1238]
10 to 20 µM,200 to 300%,COc1ccc(NC(=O)c2ccc3nsnc3c2)cc1S(=O)(=O)Nc1c(C)cccc1C [Compound 1240]
10 to 20 µM,200 to 300%,COc1ccc(NC(=O)c2ccc3ncccc3c2)cc1S(=O)(=O)Nc1c(C)cccc1C [Compound 1241]
< 10 µM,> 300%,COc1ccc(NC(=O)c2cccc(-c3ccnn3C)c2)cc1S(=O)(=O)Nc1c(C)cccc1C [Compound 1242]
< 10 µM,200 to 300%,COc1ccc(NC(=O)c2cccc(-c3noc(C)n3)c2)cc1S(=O)(=O)Nc1c(C)cccc1C [Compound 1243]
10 to 20 µM,123 to 159%,COc1ccc(NC(=O)c2c(C)noc2-c2ccccc2)cc1S(=O)(=O)Nc1c(C)cccc1C [Compound 1244]
20 to 100 µM,160 to 199%,COc1ccc(NC(=O)c2cccc(-c3cncnc3)c2)cc1S(=O)(=O)Nc1c(C)cccc1C [Compound 1248]
10 to 20 µM,160 to 199%,COc1ccc(NC(=O)c2cccc(-n3nc(C)cc3C)c2)cc1S(=O)(=O)Nc1c(C)cccc1C [Compound 1249]
10 to 20 µM,160 to 199%,COc1ccc(NC(=O)c2cccc3nccnc23)cc1S(=O)(=O)Nc1c(C)cccc1C [Compound 1251]
< 10 µM,200 to 300%,COc1ccc(NC(=O)c2cc3c(C)nn(C)c3s2)cc1S(=O)(=O)Nc1c(C)cccc1C [Compound 1252]
20 to 100 µM,160 to 199%,CCS(=O)(=O)c1ccc(OC)c(C(=O)Nc2ccc(OC)c(S(=O)(=O)Nc3c(C)cccc3C)c2)c1 [Compound 1254]
20 to 100 µM,123 to 159%,Cn1cnc2cc(C(=O)Nc3ccc(F)c(S(=O)(=O)Nc4ccc(Cl)cc4)c3)ccc2c1=O [Compound 1256]
< 10 µM,200 to 300%,COc1ccc(NC(=O)c2cc(-c3ccccc3)[nH]n2)cc1S(=O)(=O)Nc1c(C)cccc1C [Compound 1258]
